Activity calls are given as the source filed them.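 The calls were made as follows: active = fitted EC50 no more than tenfold above the highest tested concentration; inconclusive = flat fit with 30 to 70% signal loss, or poor fit; inactive = the rest.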
Tested on: Candida albicans CaCi-2 growth (no fluconazole), Alamar Blue
Experiment: intrinsic antifungal toxicity in Candida, azole-free – CaCi-2 strain, Alamar Blue fluorescence, counter-screen for fluconazole resistance reversal project, dose response (AID 2387)
Settings: C. albicans CaCi-2 (fluconazole-resistant clinical isolate) growth without fluconazole, 48 h

Structure (SMILES)	EC50
CC(=O)O/N=C/c1c(N2CCOCC2)n(C)c2ccccc12	> 16 µM (inactive)
CCc1cc(=S)n2c([nH]c3ccccc32)c1C#N	> 15 µM (inactive)
CCN(CC)c1ccc(/C=N/NC(=O)c2cccc(S(=O)(=O)N3CCOCC3)c2)c(O)c1	> 16 µM (inactive)
CCc1cc(C(=O)NC2CCCc3c2cnn3-c2cccc(C)c2C)n(C)n1 (stereo unspecified)	> 15 µM (inactive)
CCN1/C(=C/c2ccc3cc(C)ccc3[n+]2CC)Sc2ccc3sccc3c21	1.75 µM
Oc1ccc(N=Nc2ccc3c(c2)OCCO3)c2ncccc12	3.31 µM
